From ChEMBL document CHEMBL5244235, “Diarylpentanoids with antitumor activity: A critical review of structure-activity relationship studies” (Eur J Med Chem, 2020)
pIC50: −log10 of the molar value.

How the values were obtained:
P388 = test: Antiproliferative activity against mouse P388 cells assessed as cell growth inhibition; assay type: functional, cell-based
L1210 = test: Antiproliferative activity against mouse L1210 cells assessed as cell growth inhibition; assay type: functional, cell-based
[1] = Antiproliferative activity against human Molt 4/C8 cells assessed as cell growth inhibition; assay type: functional, cell-based; conditions: Molt4/C8
CCRF-CEM = test: Antiproliferative activity against human CEM cells assessed as cell growth inhibition; assay type: functional, cell-based
GCIY = test: Antiproliferative activity against human GCIY cells assessed as cell growth inhibition measured after 72 hrs; assay type: functional, cell-based
[2] = Antiproliferative activity against human SH-10-TC cells assessed as cell growth inhibition measured after 72 hrs; assay type: functional, cell-based
HCT-116 = test: Antiproliferative activity against human HCT-116 cells assessed as cell growth inhibition measured after 72 hrs; assay type: functional, cell-based; conditions: HCT-116, 72 h
DLD-1 = test: Antiproliferative activity against human DLD-1 cells assessed as cell growth inhibition measured after 72 hrs; assay type: functional, cell-based; conditions: DLD-1, 72 h
A549 = test: Antiproliferative activity against human A549 cells assessed as cell growth inhibition measured after 72 hrs; assay type: functional, cell-based; conditions: A549, 72 h
ACHN = test: Antiproliferative activity against human ACHN cells assessed as cell growth inhibition measured after 72 hrs; assay type: functional, cell-based
Huh-7 = test: Antiproliferative activity against human Huh-7 cells assessed as cell growth inhibition measured after 72 hrs; assay type: functional, cell-based; conditions: Huh-7, 72 h
[3] = Antiproliferative activity against human OVK18 cells assessed as cell growth inhibition measured after 72 hrs; assay type: functional, cell-based; conditions: OVK18, 72 h
MCF7 = test: Antiproliferative activity against human MCF7 cells assessed as cell growth inhibition measured after 72 hrs; assay type: functional, cell-based; conditions: MCF7, 72 h
A-431 = test: Antiproliferative activity against human A-431 cells assessed as cell growth inhibition measured after 72 hrs; assay type: functional, cell-based; conditions: A-431, 72 h
HuCCT-1 = test: Antiproliferative activity against human HuCCT-1 cells assessed as cell growth inhibition measured after 72 hrs; assay type: functional, cell-based; conditions: HuCCT-1, 72 h
8505C = test: Antiproliferative activity against human 8505C cells assessed as cell growth inhibition measured after 72 hrs; assay type: functional, cell-based
G-361 = test: Antiproliferative activity against human G-361 cells assessed as cell growth inhibition measured after 72 hrs; assay type: functional, cell-based; conditions: G-361, 72 h
PC-3 = test: Antiproliferative activity against human PC-3 cells assessed as cell growth inhibition measured after 72 hrs; assay type: functional, cell-based; conditions: PC-3, 72 h
[4] = Antiproliferative activity against human PK-1 cells assessed as cell growth inhibition measured after 72 hrs; assay type: functional, cell-based; conditions: PK-1, 72 h
MDA-MB-231 = test: Growth inhibition of human MDA-MB-231 cells measured after 72 hrs by microplate reader analysis; assay type: functional
RPMI-7951 = test: Growth inhibition of human RPMI-7951 cells measured after 72 hrs by microplate reader analysis; assay type: functional, cell-based; conditions: RPMI-7951, time 72 hrs

O=C1/C(=C/c2ccccc2)CN(C(=O)/C=C/c2ccc(Cl)c(Cl)c2)C/C1=C\c1ccccc1
pIC50 (P388): 6.66
pIC50 (L1210): 5.27
pIC50 [1]: 5.80
pIC50 (CCRF-CEM): 5.79

C=CC(=O)N1C/C(=C\c2ccccc2)C(=O)/C(=C/c2ccccc2)C1
pIC50 (P388): 6.55
pIC50 (L1210): 6.55
pIC50 [1]: 6.55
pIC50 (CCRF-CEM): 6.55

Cc1ccc(C(=O)/C=C/c2ccc(C(=O)N3C/C(=C\c4ccccc4)C(=O)/C(=C/c4ccccc4)C3)cc2)cc1
pIC50 (P388): 6.66
pIC50 (L1210): 5.27
pIC50 [1]: 5.80
pIC50 (CCRF-CEM): 5.79

COc1ccc(C(=O)/C=C/c2ccc(C(=O)N3C/C(=C\c4ccccc4)C(=O)/C(=C/c4ccccc4)C3)cc2)cc1
pIC50 (P388): 6.66
pIC50 (L1210): 5.27
pIC50 [1]: 5.80
pIC50 (CCRF-CEM): 5.79

C=CC(=O)N1C/C(=C\c2ccc(F)cc2)C(=O)/C(=C/c2ccc(F)cc2)C1
pIC50 (P388): 6.55
pIC50 (L1210): 6.55
pIC50 [1]: 6.55
pIC50 (CCRF-CEM): 6.55

O=C1/C(=C/c2ccccc2)CN(C(=O)c2ccc(/C=C/C(=O)c3ccc(Cl)cc3)cc2)C/C1=C\c1ccccc1
pIC50 (P388): 6.66
pIC50 (L1210): 5.27
pIC50 [1]: 5.80
pIC50 (CCRF-CEM): 5.79

O=C1/C(=C/c2ccccc2)CN(C(=O)c2ccc(/C=C/C(=O)c3ccc([N+](=O)[O-])cc3)cc2)C/C1=C\c1ccccc1
pIC50 (L1210): 5.27
pIC50 [1]: 5.80
pIC50 (CCRF-CEM): 5.79

COc1ccc(/C=C2\CC(C)C/C(=C\c3ccc(OC)c(OC)c3)C2=O)cc1OC (centres undefined)
pIC50 (GCIY): < 4.30
pIC50 [2]: < 4.30
pIC50 (HCT-116): < 4.30
pIC50 (DLD-1): < 4.30
pIC50 (A549): < 4.30
pIC50 (ACHN): < 4.30
pIC50 (Huh-7): < 4.30
pIC50 [3]: < 4.30
pIC50 (MCF7): < 4.30
pIC50 (A-431): < 4.30
pIC50 (HuCCT-1): < 4.30
pIC50 (8505C): < 4.30
pIC50 (G-361): < 4.30
pIC50 (PC-3): < 4.30
pIC50 [4]: < 4.30

CC(=O)Oc1ccccc1/C=C/C(=O)/C=C/c1ccccc1OC(C)=O
GI50 (MDA-MB-231): 1000 nM
GI50 (RPMI-7951): 2300 nM

CN(C)c1ccc(/C=C2\CNC/C(=C\c3ccc(N(C)C)cc3)C2=O)cc1
pIC50 (P388): 6.09
pIC50 (L1210): 6.09
pIC50 [1]: 6.09
pIC50 (CCRF-CEM): 6.09

COc1cc(CCC(O)CCc2cc(OC)c(OC)c(OC)c2)cc(OC)c1OC
pIC50 (GCIY): < 4.30
pIC50 [2]: < 4.30
pIC50 (HCT-116): < 4.30
pIC50 (DLD-1): < 4.30
pIC50 (A549): < 4.30
pIC50 (ACHN): < 4.30
pIC50 (Huh-7): < 4.30
pIC50 [3]: < 4.30
pIC50 (MCF7): < 4.30
pIC50 (A-431): < 4.30
pIC50 (HuCCT-1): < 4.30
pIC50 (8505C): < 4.30
pIC50 (G-361): < 4.30
pIC50 (PC-3): < 4.30
pIC50 [4]: < 4.30

O=C1/C(=C/c2ccc(Cl)cc2)CNC/C1=C\c1ccc(Cl)cc1
pIC50 (P388): 6.09
pIC50 (L1210): 6.09
pIC50 [1]: 6.09
pIC50 (CCRF-CEM): 6.09

C=CC(=O)N1C/C(=C\c2ccc(N(C)C)cc2)C(=O)/C(=C/c2ccc(N(C)C)cc2)C1
pIC50 (P388): 6.55
pIC50 (L1210): 6.55
pIC50 [1]: 6.55
pIC50 (CCRF-CEM): 6.55

O=C1/C(=C/c2ccccc2F)COC/C1=C\c1ccccc1F
GI50 (MDA-MB-231): 800 nM
GI50 (RPMI-7951): 800 nM

CCOC(C)Oc1cccc(/C=C/C(=O)/C=C/c2cc(OC)c(OC)c(OC)c2)c1 (centres undefined)
pIC50 (GCIY): 6.00
pIC50 [2]: 6.00
pIC50 (HCT-116): 6.00
pIC50 (DLD-1): 6.00
pIC50 (A549): 6.00
pIC50 (ACHN): 6.00
pIC50 (Huh-7): 6.00
pIC50 [3]: 6.00
pIC50 (MCF7): 6.00
pIC50 (A-431): 6.00
pIC50 (HuCCT-1): 6.00
pIC50 (8505C): 6.00
pIC50 (G-361): 6.00
pIC50 (PC-3): 6.00
pIC50 [4]: 6.00

CCOC(C)COc1c(OC)cc(/C=C/C(=O)/C=C/c2cc(OC)c(OC)c(OC)c2)cc1OC (centres undefined)
pIC50 (GCIY): 6.00
pIC50 [2]: 6.00
pIC50 (HCT-116): 6.00
pIC50 (DLD-1): 6.00
pIC50 (A549): 6.00
pIC50 (ACHN): 6.00
pIC50 (Huh-7): 6.00
pIC50 [3]: 6.00
pIC50 (MCF7): 6.00
pIC50 (A-431): 6.00
pIC50 (HuCCT-1): 6.00
pIC50 (8505C): 6.00
pIC50 (G-361): 6.00
pIC50 (PC-3): 6.00
pIC50 [4]: 6.00

O=C1/C(=C/c2ccccc2O)COC/C1=C\c1ccccc1O
GI50 (MDA-MB-231): 800 nM
GI50 (RPMI-7951): 800 nM

O=C1/C(=C/c2ccccc2)CN(C(=O)c2ccc(/C=C/C(=O)c3ccc(Cl)c(Cl)c3)cc2)C/C1=C\c1ccccc1
pIC50 (P388): 6.66
pIC50 (L1210): 5.27
pIC50 [1]: 5.80
pIC50 (CCRF-CEM): 5.79

COc1cc(/C=C/C(=O)N2C/C(=C\c3ccccc3)C(=O)/C(=C/c3ccccc3)C2)cc(OC)c1OC
pIC50 (P388): 6.66
pIC50 (L1210): 5.27
pIC50 [1]: 5.80
pIC50 (CCRF-CEM): 5.79

C=CC(=O)N1C/C(=C\c2ccc(OC)cc2)C(=O)/C(=C/c2ccc(OC)cc2)C1
pIC50 (P388): 6.55
pIC50 (L1210): 6.55
pIC50 [1]: 6.55
pIC50 (CCRF-CEM): 6.55

COc1ccccc1/C=C/C(=O)/C=C/c1ccccc1OC
GI50 (MDA-MB-231): 1000 nM
GI50 (RPMI-7951): 2300 nM
